In PubChem BioAssay (NCI):
“And” between values parts separate entries of the source, which are not always exact repeats. Equal values may be shown once.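 Briefly, cells in 96-well plates were exposed to five compound concentrations for 48 h, and endpoints were estimated by linear interpolation. GI50 is the concentration that inhibits growth by half. TGI: concentration producing complete growth inhibition.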

Columns and labels:
Test in all cases: NCI tumour cell line growth inhibition, 48 h
U251 CNS = tested on: U251 CNS
TK-10 renal = tested on: TK-10 renal
ACHN renal = tested on: ACHN renal
UACC-62 melanoma = tested on: UACC-62 melanoma
UACC-257 melanoma = tested on: UACC-257 melanoma
SF-539 CNS = tested on: SF-539 CNS
K-562 leukemia = tested on: K-562 leukemia
HCT-116 colon = tested on: HCT-116 colon
KM12 colon = tested on: KM12 colon
UO-31 renal = tested on: UO-31 renal

SMILES	TGI (U251 CNS) [µM]	TGI (TK-10 renal) [µM]	TGI (ACHN renal) [µM]	TGI (UACC-62 melanoma) [µM]	TGI (UACC-257 melanoma)	TGI (SF-539 CNS)	TGI (K-562 leukemia) [µM]	TGI (HCT-116 colon) [µM]	TGI (KM12 colon) [µM]	TGI (UO-31 renal)	GI50 (U251 CNS) [µM]	GI50 (UACC-62 melanoma) [µM]	GI50 (UACC-257 melanoma)	GI50 (UO-31 renal)	GI50 (SF-539 CNS) [µM]	GI50 (K-562 leukemia)	GI50 (KM12 colon)	GI50 (TK-10 renal) [µM]	GI50 (ACHN renal) [µM]	GI50 (HCT-116 colon) [µM]
COC(=O)C1CC23C=CCN4CC(C2C)C2(c5ccccc5NC12)C43 (centres undefined)	> 100	> 100	> 100	> 100	> 100 µM	> 100 µM	> 100	> 100	> 100	–	–	–	–	–	–	–	–	–	–	–
CCN(CCCl)c1cccc(NC(=O)c2ccc(C(=O)Nc3cccc(CN(C)C)c3)cc2)c1	4.08	0.779	0.624	0.309	0.304 µM	0.611 µM	10.9	12.4	–	1.81 µM	–	–	–	–	–	–	–	–	–	–
O=[N+]([O-])c1ccc2c(c1)n1c(N3CCCC3)[n+]3ccccc3c1c1c3cccc[n+]3c(N3CCCC3)n21	> 100	> 100	–	> 100	> 100 µM	> 100 µM	88.2	> 100	> 100	–	–	–	–	–	–	–	–	–	–	–
CCC1(OC(=O)CN)C(=O)OCc2c1cc1n(c2=O)Cc2cc3cc4c(cc3nc2-1)OCO4 (centres undefined)	0.0195	–	–	< 0.01	0.281 µM and 0.603 µM	0.0161 µM and 0.0165 µM	> 100	–	–	0.151 µM and 0.4 µM	< 0.01	< 0.01	< 0.01 µM and 0.0484 µM	< 0.01 µM and 0.0614 µM	< 0.01	0.0512 µM and 0.0225 µM	0.126 µM and 0.187 µM	–	–	–
C=C(CCOC)CCC1CCCCC(=C)[C@H]1O (some centres undefined)	> 100	> 100	> 100	> 100	> 100 µM	–	> 100	> 100	> 100	> 100 µM	–	–	–	–	–	–	–	–	–	–
C[PH+](c1nc2ccccc2nc1[PH+](C)C(C)(C)C)C(C)(C)C.C[PH+](c1nc2ccccc2nc1[PH+](C)C(C)(C)C)C(C)(C)C.[Au+].[Cl-] (centres undefined)	–	1.13	0.835	0.165	0.278 µM	1.14 µM	–	0.0613	0.131	–	–	0.0371	0.0359 µM	–	0.053	–	0.0314 µM	0.0431	0.113	0.0205
O=C(O)CCSC1=NCCN1	> 100	> 100	> 100	> 100	> 100 µM	–	> 100	> 100	> 100	> 100 µM	–	–	–	–	–	–	–	–	–	–
CCOC(=O)c1c(N)sc2c1C(C(=O)OCC)CCC2 (centres undefined)	> 100	> 100	> 100	> 100	> 100 µM	–	> 100	> 100	> 100	> 100 µM	–	–	–	–	–	–	–	–	–	–
CC(C)(CN1CCCCC1)C(/C=C/c1ccccc1)=N\NC(=O)N/N=C(/C=C/c1ccccc1)C(C)(C)CN1CCCCC1	3	3.36	11.9	2.89	3.1 µM	–	2.81	2.93	3.86	2.37 µM	–	–	–	–	–	–	–	–	–	–
COc1cccc(NC(=O)CC(=O)N2N=C(C)C(N=Nc3ccc(C(=O)O)cc3)C2=O)c1 (centres undefined)	–	> 100	> 100	> 100	> 100 µM	> 100 µM	> 100	> 100	> 100	> 100 µM	–	–	–	–	–	–	–	–	–	–
CC1(C)C=[N+]([O-])C(C)(C)N1O	> 10	> 10	> 10	–	> 10 µM	–	> 10	> 10	> 10	> 10 µM	–	–	–	–	–	–	–	–	–	–
O=C(NCCCCCCO)c1cccc2cc3ccccc3nc12	> 100	34.6	39.2	35.2	33.9 µM	33.7 µM	> 100	33.1	33.9	–	–	–	–	–	–	–	–	–	–	–
CS(=O)(=O)[O-].CS(=O)(=O)[O-].NC1CCCCC1N.[Pt+4] (centres undefined)	> 100	–	–	> 100	> 100 µM	> 100 µM	> 100	> 100	> 100	> 100 µM	> 87.2	> 100	> 100 µM	> 96.5 µM	> 100	79.1 µM	> 100 µM	–	–	37.4
O=P(O)(O)C=C=C1CCCCC1	> 100	> 100	> 100	> 100	> 100 µM	> 100 µM	> 100	> 100	> 100	–	–	–	–	–	–	–	–	–	–	–
C=C(C)[C@@H]1CC[C@]2(CO)CC[C@]3(C)[C@H](CC[C@@H]4[C@@](C)(CCCN)[C@H](C(=C)C)CC[C@]43C)[C@@H]12	–	3.39	3.21	3.09	–	2.99 µM	4.59	3.02	3.06	2.58 µM	–	1.71	–	1.31 µM	1.63	1.55 µM	1.58 µM	1.77	1.82	1.4
O=C(O)COc1cc(-c2ccccc2)nc2ccccc12	> 100	> 100	> 100	–	> 100 µM	> 100 µM	> 100	> 100	> 100	> 100 µM	–	–	–	–	–	–	–	–	–	–
O=c1nc2ccc3sc4ccccc4c(=O)c3n2c(=O)[nH]1	> 100	> 100	> 100	–	> 100 µM	> 100 µM	> 100	> 100	> 100	> 100 µM	–	–	–	–	–	–	–	–	–	–
CCN(CC)/[N+]([O-])=N/O	–	> 100	> 100	> 100	> 100 µM	> 100 µM	> 100	> 100	> 100	> 100 µM	–	–	–	–	–	–	–	–	–	–
C=CCCCCn1c2ccccc2c2c(C)c3cnccc3c(C)c21	40.6	–	–	40.9	18.7 µM	33.5 µM	16.1	20.9	42.6	23.8 µM	–	–	–	–	–	–	–	–	–	–
COc1cccc(C23CCCC(C2)N(C)CC3OC(=O)c2ccccc2)c1OC (centres undefined)	> 100	–	> 100	84.5	> 100 µM	> 100 µM	> 100	> 100	61.3	> 100 µM	–	–	–	–	–	–	–	–	–	–
COc1cc2oc(=O)cc(C)c2c(OC)c1OC(C)=O	> 100	> 100	> 100	> 100	> 100 µM	–	> 100	> 100	> 100	> 100 µM	–	–	–	–	–	–	–	–	–	–
